Data reported in ChEMBL document CHEMBL1201862, “PubChem BioAssay data set” (2004).
Active and inactive are the calls of the source. Rule as the data show it: actives have a measured IC50 and inactives only a lower limit.

Target: Envelope glycoprotein gp160 (Human immunodeficiency virus 1, UniProt Q6QLK5)
Assay: cell-free HIV fusion peptide-binding blockers – biochemical, uHTS, fluorescence dequenching, […] (AID 1986)

Chain of Envelope glycoprotein gp160 (Q6QLK5 whole entry, the tested form may be a part): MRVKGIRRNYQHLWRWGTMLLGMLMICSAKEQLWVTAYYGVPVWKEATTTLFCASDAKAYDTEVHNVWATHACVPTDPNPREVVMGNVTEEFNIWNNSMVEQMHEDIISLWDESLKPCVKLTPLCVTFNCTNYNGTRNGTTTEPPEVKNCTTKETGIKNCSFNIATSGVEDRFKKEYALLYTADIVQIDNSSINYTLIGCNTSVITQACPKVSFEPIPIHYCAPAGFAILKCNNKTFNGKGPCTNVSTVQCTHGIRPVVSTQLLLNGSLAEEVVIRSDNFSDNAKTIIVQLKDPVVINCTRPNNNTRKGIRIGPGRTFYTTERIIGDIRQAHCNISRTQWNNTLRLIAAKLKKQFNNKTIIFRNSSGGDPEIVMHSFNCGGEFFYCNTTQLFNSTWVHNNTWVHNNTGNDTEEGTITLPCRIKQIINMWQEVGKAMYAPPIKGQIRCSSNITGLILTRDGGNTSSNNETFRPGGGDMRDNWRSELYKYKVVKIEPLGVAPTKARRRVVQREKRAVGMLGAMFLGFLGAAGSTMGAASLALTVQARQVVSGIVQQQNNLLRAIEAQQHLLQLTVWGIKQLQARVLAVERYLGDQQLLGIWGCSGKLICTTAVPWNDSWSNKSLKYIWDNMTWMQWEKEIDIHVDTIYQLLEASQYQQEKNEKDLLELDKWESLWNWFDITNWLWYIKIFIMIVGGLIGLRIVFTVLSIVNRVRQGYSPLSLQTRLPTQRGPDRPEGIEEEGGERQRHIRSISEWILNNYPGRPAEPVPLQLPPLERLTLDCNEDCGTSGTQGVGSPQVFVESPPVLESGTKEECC

Row | Structure (SMILES) | IC50
1 | COc1cc(/C=C2\C(=N)N3N=C(S(C)(=O)=O)SC3=NC2=O)ccc1OC(=O)c1ccco1 | 21.9 µM (active)
2 | O=C(O)COc1ccccc1/C=N/NC(=O)CSc1nnc(SCc2cccc3ccccc23)s1 | 26.6 µM (active)
